The text below walks through data of US6610698B2, “Substituted pyrimidine compounds and methods of use” (Amgen, Inc., priority 1996, dated 2003).

Where a name gives a salt, the structure may show the parent alone.

The term IC50 denotes the concentration that inhibits the measured activity by half.

One experiment relates to TNF production by monocytes activated with bacterial lipopolysaccharide (LPS). In words: Lipopolysaccharide-activated monocyte TNF production assay. The class given is cell-based, human. The following applies: Homo sapiens, Monocyte, TNF in supernatant by ELISA, read-out: IC50 values in the monocyte assay (LPS induced TNF release). As for the experimental part: Lipopolysaccharide-activated Monocyte TNF Production Assay
Test compounds were evaluated in vitro for the ability to inhibit the production of TNF by monocytes activated with bacterial lipopolysaccharide (LPS). Fresh residual source leukocytes (a byproduct of plateletpheresis) were obtained from a local blood bank, and peripheral blood mononuclear cells (PBMCS) were isolated by density gradient centrifugation on Ficol-Paque Plus (Pharmacia). PBMCs were suspended at 2×10^6/ml in DMEM supplemented to contain 2% FCS, 10 mM, 0.3 mg/ml […], 100 U/ml penicillin G and […] streptomycin sulfate (complete media). Cells were plated into Falcon flat bottom, 96 well culture plates (200 μl/well) and cultured overnight at 37° C. and 6% CO2. Non-adherent cells were removed by washing with 200 μl/well of fresh medium. Wells containing adherent cells (˜70% monocytes) were replenished with 100 μl of fresh medium.
Preparation of Test Compound Stock Solutions
Test compounds were dissolved in […]. Compound stock solutions were prepared to an initial concentration of […]. Stocks were diluted initially to 20-200 μM in complete media. Nine two-fold serial dilutions of each compound were then prepared in complete medium.
Treatment of Cells with Test Compounds and Activation of TNF Production with Lipopolysaccharide
One hundred microliters of each test compound dilution were added to microtiter wells containing adherent monocytes and 100 μl complete medium. Monocytes were cultured with test compounds for 60 min at which time 25 μl of complete medium containing 30 ng/ml lipopolysaccharide from E. coli K532 were added to each well. Cells were cultured an additional 4 hrs. Culture supernatants were then removed and TNF presence in the supernatants was quantified using an ELISA.
Flat bottom, 96 well Corning High Binding ELISA plates were coated overnight (4° C.) with 150 μL/well of 3 μg/ml murine anti-human TNF-α MAb (R&D Systems #MAB210). Wells were then blocked for 1 hr at room temperature with 200 μL/well of CaCl2-free ELISA buffer supplemented to contain 20 mg/ml BSA (standard ELISA buffer: […], 150 mM NaCl, 2 mM CaCl2, 0.15 mM thimerosal, pH 7.4). Plates were washed and replenished with 100 μl of test supernatants (diluted 1:3) or standards. Standards consisted of eleven 1.5-fold serial dilutions from a stock of 1 ng/ml recombinant human TNF (R&D Systems). Plates were incubated at room temperature for 1 hr on orbital shaker (300 rpm), washed and replenished with 100 μl/well of 0.5 μg/ml goat anti-human TNF-α (R&D systems #AB-210-NA) biotinylated at a 4:1 ratio. Plates were incubated for 40 min, washed and replenished with 100 μl/well of alkaline phosphatase-conjugated streptavidin (Jackson ImmunoResearch #016-050-084) at 0.02 μg/ml. Plates were incubated 30 min, washed and replenished with 200 μl/well of 1 mg/ml of p-nitrophenyl phosphate. After 30 min, plates were read at 405 nm on a Vmax plate reader.
Standard curve data were fit to a second order polynomial and unknown TNF-α concentrations determined from their OD by solving this equation for concentration. TNF concentrations were then plotted vs. test compound concentration using a second order polynomial. This equation was then used to calculate the concentration of test compounds causing a 50% reduction in TNF production.
In general terms: An ELISA detects its analyte on a solid surface through an enzyme-linked reagent.
For the compound `Fc1ccc(-c2cnc(Cc3c(Cl)cccc3Cl)nc2-c2ccncc2)cc1` [Example 1-8, 2-(2,6-Dichlorobenzyl)-5-(4-fluorophenyl)-4-(4-pyridyl)-pyrimidine], the IC50 is at most 20 µM.

As for `Fc1ccc(-c2cnc(CSc3ccccc3)nc2-c2ccncc2)cc1` [Example 1-10, 5-(4-Fluorophenyl)-2-phenylthiomethyl-4-(4-pyridinyl)-pyrimidine], the IC50 is at most 20 µM.

As for `Fc1ccc(-c2cnc(-c3cccs3)nc2-c2ccncc2)cc1` [Example 1-18, 5-(4-Fluorophenyl)-4-(4-pyridyl)-2-(2-thienyl)-pyrimidine], the IC50 was at most 20 µM.

`CCN(CC)CCNc1ncc(-c2ccc(F)cc2)c(-c2ccncc2)n1` [Example 1-22, 2-(2-Diethylaminoethylamino)-5-(4-fluorophenyl)-4-(4-pyridyl)-pyrimidine]: the IC50 is at most 20 µM.

Regarding `Fc1ccc(-c2cnc(Nc3c(Cl)cccc3Cl)nc2-c2ccncc2)cc1` [Example 1-24, 2-(2,6-Dichlorophenylamino)-5-(4-fluorophenyl)-4-(4-pyridyl)-pyrimidine], the IC50 is at most 20 µM.

Turning to `Cc1cccc(C)c1Nc1ncc(-c2ccc(F)cc2)c(-c2ccncc2)n1` [Example 1-25, 2-(2,6-Dimethylphenylamino)-5-(4-fluorophenyl)-4-(4-pyridyl)-pyrimidine], the IC50 is at most 20 µM.

On to `Fc1ccc(Nc2ncc(-c3ccc(F)cc3)c(-c3ccncc3)n2)cc1` [Example 1-27, 5-(4-Fluorophenyl)-2-(4-fluorophenylamino)-4-(4-pyridyl)-pyrimidine], for which the IC50 was at most 20 µM.

For `Fc1ccc(-c2cnc(N3CCOCC3)nc2-c2ccncc2)cc1` [Example 1-33, 5-(4-Fluorophenyl)-2-morpholino-4-(4-pyridyl)-pyrimidine], the IC50 was at most 20 µM.

Take `NCCCCNc1ncc(-c2ccc(F)cc2)c(-c2ccncc2)n1` [Example 2-3, 2-(4-Aminobutylamino)-5-(4-fluorophenyl)-4-(4-pyridyl)-pyrimidine hydrochloride]: the IC50 was at most 20 µM.

In the case of `Fc1ccc(-c2cnc(NCCc3ccc(Br)cc3)nc2-c2ccncc2)cc1` [Example 2-10, 2-(2-(4-Bromophenyl)-ethylamino)-5-(4-fluorophenyl)-4-(4-pyridyl)-pyrimidine], the concentration for half-maximal inhibition (IC50) was at most 20 µM.

As to `Nc1ccc(CCNc2ncc(-c3ccc(F)cc3)c(-c3ccncc3)n2)cc1` [Example 2-12, 2-(2-(4-Aminophenyl)-ethylamino)-5-(4-fluorophenyl)-4-(4-pyridyl)-pyrimidine], the 50% inhibitory concentration (IC50) is at most 20 µM.

As to `COc1ccccc1CCNc1ncc(-c2ccc(F)cc2)c(-c2ccncc2)n1` [Example 2-15, 5-(4-Fluorophenyl)-2-(2-(2-methoxyphenyl)-ethylamino)-4-(4-pyridyl)-pyrimidine], the IC50 was at most 20 µM.

Regarding `COc1cccc(CCNc2ncc(-c3ccc(F)cc3)c(-c3ccncc3)n2)c1` [Example 2-18, 5-(4-Fluorophenyl)-2-(2-(3-methoxyphenyl)-ethylamino)-4-(4-pyridyl)-pyrimidine], the IC50 is at most 20 µM.

Take `CC(CCc1ccccc1)Nc1ncc(-c2ccc(F)cc2)c(-c2ccncc2)n1` (centres unmarked) [Example 2-23, 5-(4-Fluorophenyl)-2-((1-methyl-3-phenylpropyl)-amino)-4-(4-pyridyl)-pyrimidine]: the IC50 was at most 20 µM.

Turning to `Fc1ccc(-c2cnc(NCCCCc3ccccc3)nc2-c2ccncc2)cc1` [Example 2-25, 5-(4-Fluorophenyl)-2-((4-phenyl-n-butyl)-amino)-4-(4-pyridyl)-pyrimidine], the IC50 is at most 20 µM.

For `Fc1ccc(-c2cnc(NCCN3CCOCC3)nc2-c2ccncc2)cc1` [Example 2-30, 5-(4-Fluorophenyl)-2-(2-morpholinoethylamino)-4-(4-pyridyl)-pyrimidine], the IC50 was at most 20 µM.

As for `Fc1ccc(-c2cnc(NCCN3CCCCC3)nc2-c2ccncc2)cc1` [Example 2-31, 5-(4-Fluorophenyl)-2-(2-piperidinoethylamino)-4-(4-pyridyl)-pyrimidine], the IC50 is at most 20 µM.

Take `Fc1ccc(-c2cnc(NCCN3CCCC3)nc2-c2ccncc2)cc1` [Example 2-32, 5-(4-Fluorophenyl)-4-(4-pyridyl)-2-(2-pyrrolidinoethylamino)-pyrimidine]: the IC50 is at most 20 µM.

Take `O=C1CCCN1CCCNc1ncc(-c2ccc(F)cc2)c(-c2ccncc2)n1` [Example 2-34, 5-(4-Fluorophenyl)-2-(3-(2-pyrrolidinon-1-yl)-propylamino)-4-(4-pyridyl)-pyrimidine]: the IC50 is at most 20 µM.

In the case of `O=c1[nH]c(Cc2c(Cl)cccc2Cl)nc(-c2ccncc2)c1-c1ccc(F)cc1` [Example 4-3, 2-(2,6-Dichlorobenzyl)-5-(4-fluorophenyl)-6-(4-pyridyl)-4(3H)-pyrimidinone], the IC50 was at most 20 µM.

Consider `O=c1[nH]c(SCCOc2ccccc2)nc(-c2ccncc2)c1-c1ccc(F)cc1` [Example 5-3, 5-(4-Fluorophenyl)-2-(2-phenoxyethyl)thio-6-(4-pyridyl)-4(3H)-pyrimidinone], for which the IC50 is at most 20 µM.

As for `O=c1[nH]c(SCCNc2ccccc2)nc(-c2ccncc2)c1-c1ccc(F)cc1` [Example 5-4, 5-(4-Fluorophenyl)-2-(2-phenylaminoethyl)thio-6-(4-pyridyl)-4(3H)-pyrimidinone], the IC50 was at most 20 µM.

With `Fc1ccc(-c2cnc(-c3ccncc3)nc2-c2ccncc2)cc1` [Example 11, 5-(4-Fluorophenyl)-2,4-bis-(4-pyridyl)-pyrimidine], the IC50 is at most 20 µM.

The same experiment, now with this note: TNF in supernatant by ELISA, listed as 5-(4-Fluorophenyl)-2-(N-methyl-N-(2-phenylethyl)amino)-4-(4-pyridyl)-pyrimidine, read-out: IC50 values in the monocyte assay (LPS induced TNF release).
Regarding `CN(CCc1ccccc1)c1ncc(-c2ccc(F)cc2)c(-c2ccncc2)n1` [Example 2-21, 5-(4-Fluorophenyl)-2-(methyl-(2-phenylethyl)-amino)-4-(4-pyridyl)-pyrimidine], the concentration for half-maximal inhibition (IC50) was at most 5 µM.

Still in this experiment, the particulars now being: TNF in supernatant by ELISA, read-out: IC50 values in the monocyte assay (LPS induced TNF release).
Turning to “5-(4-Fluorophenyl)-2-((3-imidazolylpropyl)-amino)-4-(4-pyridyl)-pyrimidine [Example 2-24]”, the IC50 was at most 5 µM.

For `Fc1ccc(CCNc2ncc(-c3ccc(F)cc3)c(-c3ccncc3)n2)cc1` [Example 2-8, 5-(4-Fluorophenyl)-2-(2-(4-fluorophenyl)-ethylamino)-4-(4-pyridyl)-pyrimidine], the IC50 is at most 5 µM.

Regarding `Oc1ccc(CCNc2ncc(-c3ccc(F)cc3)c(-c3ccncc3)n2)cc1` [Example 2-11, 5-(4-Fluorophenyl)-2-(2-(4-hydroxyphenyl)-ethylamino)-4-(4-pyridyl)-pyrimidine], the IC50 is at most 5 µM.

With `Fc1ccc(-c2cnc(NCCc3ccccc3F)nc2-c2ccncc2)cc1` [Example 2-13, 5-(4-Fluorophenyl)-2-(2-(2-fluorophenyl)-ethylamino)-4-(4-pyridyl)-pyrimidine], the IC50 is at most 5 µM.

As to `OC(CNc1ncc(-c2ccc(F)cc2)c(-c2ccncc2)n1)c1ccccc1` (centres unmarked) [Example 2-20, 5-(4-Fluorophenyl)-2-((2-hydroxy-2-phenyl)-ethylamino)-4-(4-pyridyl)-pyrimidine], the half-maximal inhibitory concentration (IC50) was at most 5 µM.

As for `Fc1ccc(-c2cnc(NCCCc3ccccc3)nc2-c2ccncc2)cc1` [Example 2-22, 5-(4-Fluorophenyl)-2-((3-phenylpropyl)-amino)-4-(4-pyridyl)-pyrimidine], the IC50 was at most 5 µM.

With `O=c1[nH]c(NCCCc2ccccc2)nc(-c2ccncc2)c1-c1ccc(F)cc1` [Example 6-2, 5-(4-Fluorophenyl)-2-((3-phenylpropyl)-amino)-6-(4-pyridyl)-4(3H)-pyrimidinone], the IC50 was at most 5 µM.

Consider `CC(CCc1ccccc1)Nc1nc(-c2ccncc2)c(-c2ccc(F)cc2)c(=O)[nH]1` (centres unmarked) [Example 6-3, 5-(4-Fluorophenyl)-2-((1-methyl-3-phenylpropyl)-amino)-6-(4-pyridyl)-4(3H)-pyrimidinone], for which the IC50 is at most 5 µM.
